The subject of data set [1] is HCV replicon RNA in Huh 11-7 cell line. The data set is described as follows: Cell-Based Replicon Assay. The settings on record: Hepatitis C virus, 96 h; Huh 11-7 cells, 4 days. As for the experimental part:
Quantification of HCV replicon RNA (HCV Cell Based Assay) is accomplished using the Huh 11-7 cell line (Lohmann, et al Science 285:110-113, 1999). Cells are seeded at 4×10^3 cells/well in 96 well plates and fed media containing DMEM (high glucose), 10% fetal calf serum, penicillin-streptomycin and non-essential amino acids. Cells are incubated in a 7.5% CO2 incubator at 37° C. At the end of the incubation period, total RNA is extracted and purified from cells using Ambion RNAqueous 96 Kit (Catalog No. AM1812). To amplify the HCV RNA so that sufficient material can be detected by an HCV specific probe (below), primers specific for HCV (below) mediate both the reverse transcription of the HCV RNA and the amplification of the cDNA by polymerase chain reaction (PCR) using the TaqMan One-Step RT-PCR Master Mix Kit (Applied Biosystems catalog no. 4309169). The nucleotide sequences of the RT-PCR primers, which are located in the NS5B region of the HCV genome, are the following:
Detection of the RT-PCR product is accomplished using the Applied Biosystems (ABI) Prism 7500 Sequence Detection System (SDS) that detects the fluorescence that is emitted when the probe, which is labeled with a fluorescence reporter dye and a quencher dye, is degraded during the PCR reaction. The increase in the amount of fluorescence is measured during each cycle of PCR and reflects the increasing amount of RT-PCR product. Specifically, quantification is based on the threshold cycle, where the amplification plot crosses a defined fluorescence threshold. […] The data is analyzed using the ABI SDS program version 1.7. […]
The RT-PCR product was detected using the following labeled probe: […]
To normalize the data to an internal control molecule within the cellular RNA, RT-PCR is performed on the cellular messenger RNA glyceraldehyde-3-phosphate dehydrogenase (GAPDH). […] GAPDH RT-PCR is performed on the same RNA sample from which the HCV copy number is determined. […] The ratio of HCV/GAPDH RNA is used to calculate the activity of compounds evaluated for inhibition of HCV RNA replication. […]

Data set [2] can be described thus: Pharmacokinetic analysis, single oral dose in rat. The settings on record: in vivo, single oral dose of 20 mg/kg.
Data set [3] deals with full-length NS3 HCV protease 1b tethered with NS4A cofactor (Hepatitis C virus genotype 1b, UniProt Q9WMX2). The data set is described as follows: NS3/NS4a Protease Enzyme Assay. The class given is biochemical. On the procedure: HCV protease activity and inhibition is assayed using an internally quenched fluorogenic substrate. A DABCYL and an EDANS group are attached to opposite ends of a short peptide. Quenching of the EDANS fluorescence by the DABCYL group is relieved upon proteolytic cleavage. Fluorescence is measured with a Molecular Devices Fluoromax (or equivalent) using an excitation wavelength of 355 nm and an emission wavelength of 485 nm.
full-length NS3 HCV protease 1b tethered with NS4A cofactor, sequence (Q9WMX2 1027-1657, other chains not shown): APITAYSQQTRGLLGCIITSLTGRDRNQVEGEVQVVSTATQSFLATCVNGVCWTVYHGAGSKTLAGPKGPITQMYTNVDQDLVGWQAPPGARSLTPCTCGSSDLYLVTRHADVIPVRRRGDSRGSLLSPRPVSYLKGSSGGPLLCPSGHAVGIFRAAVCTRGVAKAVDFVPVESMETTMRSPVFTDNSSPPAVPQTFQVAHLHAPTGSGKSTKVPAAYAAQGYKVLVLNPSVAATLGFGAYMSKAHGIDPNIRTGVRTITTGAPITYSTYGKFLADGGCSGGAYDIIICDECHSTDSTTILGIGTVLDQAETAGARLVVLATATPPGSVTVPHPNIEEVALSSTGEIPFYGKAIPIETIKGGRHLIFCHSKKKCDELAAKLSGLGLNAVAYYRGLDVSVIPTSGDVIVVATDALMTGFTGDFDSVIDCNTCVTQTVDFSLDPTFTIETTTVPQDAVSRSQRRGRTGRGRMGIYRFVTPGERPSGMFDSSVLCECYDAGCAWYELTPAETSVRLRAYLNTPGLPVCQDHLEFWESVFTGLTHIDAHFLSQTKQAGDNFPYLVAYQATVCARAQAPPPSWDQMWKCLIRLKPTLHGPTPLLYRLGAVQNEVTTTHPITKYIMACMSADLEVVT
The assay is run in Corning white half-area 96-well plates (VWR 29444-312 [Corning 3693]) with full-length NS3 HCV protease 1b tethered with NS4A cofactor (final enzyme concentration 1 to 15 nM). The assay buffer is complemented with 10 μM NS4A cofactor Pep 4A (Anaspec 25336 or in-house, MW 1424.8). RET S1 (Ac-Asp-Glu-Asp(EDANS)-Glu-Glu-Abu-[COO]Ala-Ser-Lys-(DABCYL)-NH2, AnaSpec 22991, MW 1548.6) is used as the fluorogenic peptide substrate. The assay buffer contains 50 mM Hepes at pH 7.5, 30 mM NaCl and 10 mM BME. The enzyme reaction is followed over a 30 minutes time course at room temperature in the absence and presence of inhibitors.
The peptide inhibitors HCV Inh 1 (Anaspec 25345, MW 796.8) Ac-Asp-Glu-Met-Glu-Glu-Cys-OH, [−20° C.] and HCV Inh 2 (Anaspec 25346, MW 913.1) Ac-Asp-Glu-Dif-Cha-Cys-OH, are used as reference compounds.
IC50 values are calculated using XLFit in ActivityBase (IDBS) using equation 205: y=A+((B−A)/(1+((C/x)^D))).

The results in this text go back to US8785377B2, “Tetrazolyl macrocyclic hepatitis C serine protease inhibitors” (Enanta Pharmaceuticals, Inc., priority 2006, dated 2014).

Molecules are shown by their SMILES.

As to `COc1ccc(-c2nnn(C3CC4C(=O)NC5(C(=O)NS(=O)(=O)C6CC6)CC5C=CCCCCCC(NC(=O)OC5CCCC5)C(=O)N4C3)n2)cc1` (stereo not drawn) [Example 36], the EC50 (as a rule, the midpoint of the concentration-response curve) in data set [1] worked out at 0.8 nM. Also, in data set [2], the AUC – broadly, the area under the concentration-time curve, a measure of exposure – turned out to be 52900 ng·h/mL; the highest concentration (Cmax) – broadly, the peak of the concentration-time curve – was 16100 ng/mL; the bioavailability (as a rule, dose-corrected exposure relative to a reference, in per cent) amounted to 76%. The IC50 (commonly the midpoint of a concentration-inhibition curve) in data set [3] was 0.1 nM.
With `O=C(NC1CCCCCC=CC2CC2(C(=O)NS(=O)(=O)C2CC2)NC(=O)C2CC(n3nnc(-c4cccc5ccccc45)n3)CN2C1=O)OC1CCCC1` (stereo not drawn) [Example 117], in data set [1], the 50% effective concentration (EC50) stood at 0.8 nM. The compound also displayed an IC50 in data set [3] of 0.2 nM.
The corresponding values for `COc1ccc(-n2nnc(C3CC4C(=O)NC5(C(=O)NS(=O)(=O)C6CC6)CC5C=CCCCCCC(NC(=O)OC5CCCC5)C(=O)N4C3)n2)cc1` (stereo not drawn) [Example 101] are 0.8 nM and 0.4 nM.
